According to patent US20080241085A1, “COMPOSITIONS FOR USE IN DARKENING THE SKIN” (priority 2007, published 2008):

How the values were obtained:
Format in all cases: in vivo
human skin [1] = assay: Visual evaluation of skin darkening after topical treatment of a human subject's arm; design: key to visual skin darkening, 2 WEEKS / visual skin darkening, 4 WEEKS / visual skin darkening, 8 WEEKS / visual skin darkening, 8 WKS + 1 WK / visual skin darkening, 8 WKS + 2 WKS / visual skin darkening, 8 WKS + 3 WKS: ++: Obvious visible tan-like color; +: Weak visible tan-like color; 0: No visible tan-like color; conditions: for visual skin darkening, 2 WEEKS: one volunteer, 2 weeks of treatment; for visual skin darkening, 8 WEEKS: 8 weeks of treatment; for induction of visible skin darkening (in words): 1% topical twice a day, six to eight weeks; for visual skin darkening, 8 WKS + 1 WK: 8 weeks topical treatment followed by 1 week without any treatment; for visual skin darkening, 8 WKS + 2 WKS: 8 weeks topical treatment followed by 2 weeks without any treatment; for visual skin darkening, 8 WKS + 3 WKS: 8 weeks topical treatment followed by 3 weeks without any treatment
Procedure: All the phospholipids were dissolved in an ethanol/propylene glycol vehicle (70/30, v/v) at the concentration of 1% of solid phospholipid powder. Preparations 1, 2 and 3 were tested for their ability to induce skin darkening in one human subject, with informed consent. One volunteer, Fitzpatrick skin type II, with no history of skin cancer, no skin disease or unusual skin reaction, and no topical treatments on the study sites (the upper and lower parts of the arm) within a period of 30 days before enrollment and during the treatment period, was treated with preparations 1-3. Different preparations were used in four different studies. Two studies used the upper part of the arm, and two other studies used the lower part of the arm, which were treated twice a day for six to eight weeks with 10 μl of test phospholipid solutions (1%) in ethanol: propylene glycol (70:30, v/v) vehicle, or with vehicle alone. No other products were used and no sun exposure occurred during the treatment period. Skin darkening was evaluated visually, and in some cases also by using a chromameter (ChromaMeter, Minolta, Osaka, Japan) and DRS (see Nguyen B. C., Br. J. Dermatol. 2003, 149(2):332-40). Measurements were taken at 4 and 8 weeks. The DRS instrument was assembled using a tungsten halogen light source (Model LS- 1, Ocean Optics, Dunedin, Fla., USA), Miniature Fiber Optic Spectrometer (Model USB2000, Ocean Optics, Dunedin, Fla., USA) and custom-designed bifurcated fiber optic probe (Multimode Fiber Optics Inc, East Hanover, N.J., USA). The scale used for reporting visual skin darkening is defined in the Table 1. The visual tan-like color was somewhat stronger on the upper arm, relative to lower arm, possibly because of slightly darker baseline color of the lower arm than the upper arm. The visual results are summarized in Table 2, including the fading time of the darker color, when treatment was terminated at 8 weeks and skin color was followed for additional three weeks.

human skin [2] = assay: Skin colour L* by chromameter after topical treatment of a human subject's arm; conditions: 4 weeks of treatment, 1% topical twice a day; vehicle 67.28
Procedure: (§1) All the phospholipids were dissolved in an ethanol/propylene glycol vehicle (70/30, v/v) at the concentration of 1% of solid phospholipid powder.
(§2) Preparations 1, 2 and 3 were tested for their ability to induce skin darkening in one human subject, with informed consent. One volunteer, Fitzpatrick skin type II, with no history of skin cancer, no skin disease or unusual skin reaction, and no topical treatments on the study sites (the upper and lower parts of the arm) within a period of 30 days before enrollment and during the treatment period, was treated with preparations 1-3. Different preparations were used in four different studies. Two studies used the upper part of the arm, and two other studies used the lower part of the arm, which were treated twice a day for six to eight weeks with 10 μl of test phospholipid solutions (1%) in ethanol: propylene glycol (70:30, v/v) vehicle, or with vehicle alone. No other products were used and no sun exposure occurred during the treatment period.
(§3) Skin darkening was evaluated visually, and in some cases also by using a chromameter (ChromaMeter, Minolta, Osaka, Japan) and DRS (see Nguyen B. C., Br. J. Dermatol. 2003, 149(2):332-40). Measurements were taken at 4 and 8 weeks. […]

human skin [3] = assay: Melanin deposition by DRS after topical treatment of a human subject's arm; conditions: 4 weeks of treatment, 1% topical twice a day; vehicle 1.248
Procedure: as §1, §2, §3

[4] = 1% in ethanol/propylene glycol (70/30), 10 μl twice a day, topical, arm
[5] = after termination of 8 weeks topical treatment

Lysophosphatidylcholine [Preparation 2]
visual skin darkening, 2 WEEKS (human skin [1]; [4]): +
visual skin darkening, 8 WEEKS (human skin [1]; [4]): ++
induction of visible skin darkening (in words) (human skin [1]): induced visible skin darkening
visual skin darkening, 8 WKS + 1 WK (human skin [1]): ++
visual skin darkening, 8 WKS + 2 WKS (human skin [1]): +
visual skin darkening, 8 WKS + 3 WKS (human skin [1]): 0
L* (Chromameter) (human skin [2]): 67.69
Melanin (DRS, arbitrary units) (human skin [3]): 1.304 arbitrary units

lysophosphatidylcholine [Preparation 1]
visual skin darkening, 2 WEEKS (human skin [1]; [4]): +
visual skin darkening, 4 WEEKS (human skin [1]; 1% in ethanol/propylene glycol (70/30), 10 μl twice a day, topical, arm, 4 weeks of treatment): ++
visual skin darkening, 8 WEEKS (human skin [1]; [4]): ++
induction of visible skin darkening (in words) (human skin [1]): induced visible skin darkening
visual skin darkening, 8 WKS + 1 WK (human skin [1]): ++
visual skin darkening, 8 WKS + 2 WKS (human skin [1]): +
visual skin darkening, 8 WKS + 3 WKS (human skin [1]): 0
L* (Chromameter) (human skin [2]): 68.27
Melanin (DRS, arbitrary units) (human skin [3]): 1.274 arbitrary units

lysophosphatidylcholine [LPC]
time at which darkening started to fade after termination of topical treatment (human skin [1]; [5]): 14 to 20 days
time the darkening remained visible after the end of the topical treatment (human skin [1]; [5]): at least 14 days
change of visible skin darkening with routine daily activities (e.g., after water and soap washing) (human skin [1]; during topical treatment): did not change
